Measurements reported in patent US10689414B2 (Agios Pharmaceuticals, Inc., priority 2013, dated 2020).

System: U87MG cells
Assay: Cellular assay, inhibition of 2-HG production in U87MG cells
Assay type: cell-based
Conditions: Homo sapiens, U-87 MG, 48 h
Outline: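 HT1080 or U87MG cells (U87MG kept with 500 ug/mL G418) seeded at 5000 cells/well and treated with compound at 0.2% final DMSO. Incubated 48 h at 37 °C. 2-HG inhibition determined by LC-MS. Viability read by CellTiter-Glo luminescence at 72 h post-dose.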

| IC50 [nM] | SMILES |
| --- | --- |
| < 100 | COc1cccc(N(C(=O)[C@@H]2CCC(=O)N2c2nccc(C#N)n2)[C@H](C(=O)NC2CC(F)(F)C2)c2ccccc2Cl)c1 [Compound 164, (S)—N—((S)-1-(2-Chlorophenyl)-2-(3,3-difluorocyclobutyl-amino)-2-oxoethyl)-1-(4-cyanopyrimidin-2-yl)-N-(3-methoxyphenyl)-5-oxopyrrolidine-2-carboxamide] |
| 100 to 500 | CS(=O)(=O)c1cccc(N(C(=O)[C@@H]2CCC(=O)N2c2nccc(C#N)n2)[C@H](C(=O)NC2CCC(F)(F)CC2)c2ccccc2Cl)c1 [Compound 103, (S)—N—((S)-1-(2C)-2-((4,4-difluorocyclohexyl)amino)-2-oxoethyl)-1-(4-cyanopyrimidin-2-yl)-N-(3-(methylsulfonyl)phenyl)-5-oxopyrrolidine-2-carboxamide] |
| < 100 | CC(=O)N1CC(=O)N(c2cc(C#N)ccn2)[C@H](C(=O)N(c2cccc(F)c2)[C@H](C(=O)NC2CC(F)(F)C2)c2ccccc2Cl)C1 [Compound 92, (S)-4-Acetyl-N—((S)-1-(2-chlorophenyl)-2-(3,3-difluorocyclobutylamino)-2-oxoethyl)-1-(4-cyanopyridin-2-yl)-N-(3-fluorophenyl)-6-oxopiperazine-2-carboxamide] |
| < 100 | O=C(NC1CCC(F)(F)CC1)[C@H](c1ccccc1Cl)N(C(=O)[C@@H]1CCC(=O)N1c1ncccn1)c1cccc(F)c1 [Compound 4, (S)—N—((S)-1-(2-chlorophenyl)-2-((4,4-difluorocyclohexyl)amino)-2-oxoethyl)-N-(3-fluoro-phenyl)-5-oxo-1-(pyrimidin-2-yl)pyrrolidine-2-carboxamide] |
| < 100 | N#Cc1ccnc(N2C(=O)CC[C@H]2C(=O)N(c2cc(F)cc(F)c2)[C@H](C(=O)NC2CCC(F)(F)CC2)c2ccccc2Cl)c1 [Compound 81, (2S)—N-(1-(2-Chlorophenyl)-2-(4,4-difluorocyclohexylamino)-2-oxoethyl)-1-(4-cyanopyridin-2-yl)-N-(3,5-difluorophenyl)-5-oxopyrrolidine-2-carboxamide] |
| < 100 | O=C(NC1CCC(F)(F)CC1)[C@H](c1ccccc1Cl)N(C(=O)[C@@H]1COC(=O)N1c1ncccn1)c1cccc(F)c1 [Compound 76, (S)—N—((S)-1-(2-Chlorophenyl)-2-((4,4-difluorocyclohexyl)amino)-2-oxoethyl)-N-(3-fluoro-phenyl)-2-oxo-3-(pyrimidin-2-yl)oxazolidine-4-carboxamide] |
| < 100 | CS(=O)(=O)Nc1cccc(N(C(=O)[C@@H]2CCC(=O)N2c2cc(C#N)ccn2)[C@H](C(=O)NC2CC(F)(F)C2)c2ccccc2Cl)c1 [Compound 159, (S)—N—((S)-1-(2-Chlorophenyl)-2-(3,3-difluorocyclobutylamino)-2-oxoethyl)-1-(4-cyanopyridin-2-yl)-N-(3-(methylsulfonamido)phenyl)-5-oxopyrrolidine-2-carboxamide] |
| 100 to 500 | N#Cc1ccnc(N2C(=O)[C@@H](O)C[C@H]2C(=O)N(c2cccc(F)c2)[C@H](C(=O)NC2CC(F)(F)C2)c2ccccc2Cl)n1 [Compound 119, (2S,4S)—N—((S)-1-(2-Chlorophenyl)-2-(3,3-difluorocyclobutylamino)-2-oxoethyl)-1-(4-cyanopyrimidin-2-yl)-N-(3-fluorophenyl)-4-hydroxy-5-oxopyrrolidine-2-carboxamide] |
| < 100 | N#Cc1ccnc(N2C(=O)CC[C@H]2C(=O)N(c2cncc(F)c2)[C@H](C(=O)NC2CC(F)(F)C2)c2ccccc2Cl)c1 [Compound 176, (S)—N—((S)-1-(2-Chlorophenyl)-2-(3,3-difluorocyclobutylamino)-2-oxoethyl)-1-(4-cyanopyridin-2-yl)-N-(5-fluoropyridin-3-yl)-5-oxopyrrolidine-2-carboxamide] |
| < 100 | O=C(NC1CC(F)(F)C1)[C@H](c1ccccc1Cl)N(C(=O)[C@@H]1COC(=O)N1c1ncccn1)c1cccc(F)c1 [Compound 9, (S)—N—((S)-1-(2-chloro-phenyl)-2-(3,3-difluorocyclo-butylamino)-2-oxoethyl)-N-(3-fluoro-phenyl)-2-oxo-3-(pyrimidin-2-yl)oxazolidine-4-carboxamide] |
| < 100 | N#Cc1ccnc(N2C(=O)[C@H](O)C[C@H]2C(=O)N(c2cccc(F)c2)[C@H](C(=O)NC2CCC(F)(F)CC2)c2ccccc2Cl)c1 [Compound 121, (2S,4R)—N—((S)-1-(2-Chlorophenyl)-2-((4,4-difluorocyclohexyl)amino)-2-oxoethyl)-1-(4-cyanopyridin-2-yl)-N-(3-fluorophenyl)-4-hydroxy-5-oxopyrrolidine-2-carboxamide] |
| < 100 | N#Cc1cc(F)cc(N(C(=O)[C@@H]2CCC(=O)N2c2cc(C#N)ccn2)[C@H](C(=O)NC2CC(F)(F)C2)c2ccccc2)c1 [Compound 211, (S)—N-(3-Cyano-5-fluorophenyl)-1-(4-cyanopyridin-2-yl)-N—((S)-2-(3,3-difluorocyclobutyl-amino)-2-oxo-1-phenylethyl)-5-oxopyrrolidine-2-carboxamide] |
| < 100 | N#Cc1ccnc(N2C(=O)[C@@H](O)C[C@H]2C(=O)N(c2cccc(F)c2)[C@H](C(=O)NC2CCC(F)(F)CC2)c2ccccc2Cl)c1 [Compound 172, (2S,4S)—N—((S)-1-(2-Chlorophenyl)-2-((4,4-difluorocyclohexyl)amino)-2-oxoethyl)-1-(4-cyano-pyridin-2-yl)-N-(3-fluorophenyl)-4-hydroxy-5-oxopyrrolidine-2-carboxamide] |
| < 100 | N#Cc1cc(C#N)cc(N(C(=O)[C@@H]2CCC(=O)N2c2cc(C#N)ccn2)[C@H](C(=O)NC2CC(F)(F)C2)c2ccccc2Cl)c1 [Compound 153, (S)—N—((S)-1-(2-Chlorophenyl)-2-((3,3-difluorocyclobutyl)amino)-2-oxoethyl)-1-(4-cyanopyridin-2-yl)-N-(3,5-dicyanophenyl)-5-oxopyrrolidine-2-carboxamide] |
| 100 to 500 | N#Cc1ccnc(N2C(=O)[C@H](O)C[C@H]2C(=O)N(c2cc(F)cc(F)c2)[C@@H](C(=O)NC2CCC(F)(F)CC2)c2ccccc2Cl)n1 [Compound 126, (2S,4R)—N—((R)-1-(2-Chlorophenyl)-2-(4,4-difluorocyclohexylamino)-2-oxoethyl)-1-(4-cyanopyrimidin-2-yl)-N-(3,5-difluorophenyl)-4-hydroxy-5-oxopyrrolidine-2-carboxamide] |
| < 100 | N#Cc1ccnc(N2C(=O)CC[C@H]2C(=O)N(c2cccc(F)c2)[C@H](C(=O)NC2CCC(F)(F)CC2)c2ccccc2Cl)c1F [Compound 83, (S)—N—((S)-1-(2-Chlorophenyl)-2-((4,4-difluorocyclohexyl)amino)-2-oxoethyl)-1-(4-cyano-3-fluoropyridin-2-yl)-N-(3-fluorophenyl)-5-oxopyrrolidine-2-carboxamide] |
| < 100 | N#Cc1cccc(N(C(=O)[C@@H]2CCC(=O)N2c2nccc(C#N)n2)[C@H](C(=O)NC2CC(F)(F)C2)c2ccccc2Cl)c1 [Compound 167, (S)—N—((S)-1-(2-Chlorophenyl)-2-((3,3-difluorocyclobutyl)amino)-2-oxoethyl)-N-(3-cyanophenyl)-1-(4-cyanopyrimidin-2-yl)-5-oxopyrrolidine-2-carboxamide] |
| < 100 | N#Cc1ccnc(N2C(=O)[C@H](O)C[C@H]2C(=O)N(c2cc(F)cc(F)c2)[C@H](C(=O)NC2CC(F)(F)C2)c2ccccc2Cl)c1 [Compound 115, (2S,4R)—N—((S)-1-(2-Chlorophenyl)-2-((3,3-difluorocyclobutyl)amino)-2-oxoethyl)-1-(4-cyanopyridin-2-yl)-N-(3,5-difluorophenyl)-4-hydroxy-5-oxopyrrolidine-2-carboxamide] |
| 100 to 500 | O=C(NC1CC(F)(F)C1)C(c1ccccc1Cl)N(C(=O)[C@@H]1CCC(=O)N1c1ccccc1)c1cccc(F)c1 (stereo partly drawn) [Compound 23] |
| < 100 | N#Cc1ccnc(N2C(=O)CC[C@H]2C(=O)N(c2cccc(OC(F)(F)F)c2)C(C(=O)NC2CC(F)(F)C2)c2ccccc2Cl)n1 (stereo partly drawn) [Compound 180, (2S)—N-(1-(2-Chlorophenyl)-2-((3,3-difluorocyclobutyl)amino)-2-oxoethyl)-1-(4-cyanopyrimidin-2-yl)-5-oxo-N-(3-(trifluoromethoxy)phenyl)pyrrolidine-2-carboxamide] |
| < 100 | N#Cc1cc(F)cc(N(C(=O)[C@@H]2C[C@@H](O)C(=O)N2c2cc(C#N)ccn2)C(C(=O)NC2CC(F)(F)C2)c2ccccc2Cl)c1 (mixture of isomers) [Compound 169, (2S,4R)—N-(1-(2-Chlorophenyl)-2-(3,3-difluorocyclobutylamino)-2-oxoethyl)-N-(3-cyano-5-fluorophenyl)-1-(4-cyanopyridin-2-yl)-4-hydroxy-5-oxopyrrolidine-2-carboxamide] |
| 100 to 500 | N#Cc1ccnc(N2C(=O)CC[C@H]2C(=O)N(c2cccc(S(N)(=O)=O)c2)[C@H](C(=O)NC2CC(F)(F)C2)c2ccccc2Cl)c1 [Compound 84, (S)—N—((S)-1-(2-Chlorophenyl)-2-(3,3-difluorocyclobutylamino)-2-oxoethyl)-1-(4-cyanopyridin-2-yl)-5-oxo-N-(3-sulfamoylphenyl)pyrrolidine-2-carboxamide] |
| < 100 | N#Cc1ccnc(N2C(=O)CC[C@H]2C(=O)N(c2cccc(C3CC3)c2)[C@H](C(=O)NC2CC(F)(F)C2)c2ccccc2Cl)c1 [Compound 173, (S)—N—((S)-1-(2-Chlorophenyl)-2-((3,3-difluorocyclobutyl)amino)-2-oxoethyl)-1-(4-cyanopyri-din-2-yl)-N-(3-cyclopropylphenyl)-5-oxopyrrolidine-2-carboxamide] |
| < 100 | C[C@]1(O)C[C@@H](C(=O)N(c2cccc(F)c2)[C@H](C(=O)NC2CC(F)(F)C2)c2ccccc2Cl)N(c2cc(C#N)ccn2)C1=O (stereo in doubt) [Compound 183, (2S)—N—((R)-1-(2-chlorophenyl)-2-(3,3-difluorocyclobutylamino)-2-oxoethyl)-1-(4-cyanopyridin-2-yl)-N-(3-fluorophenyl)-4-hydroxy-4-methyl-5-oxopyrrolidine-2-carboxamide] |
